Data reported in patent US6753348B2, “BTK inhibitors and methods for their identification and use” (Parker Hughes Institute, priority 1998, dated 2004).

Legend:
[1] = tested on: OVA-sensitized and challenged mice; assay: Eosinophil infiltration in bronchoalveolar lavage of OVA challenged mice; type: in vivo, mouse; conditions: ovalbumin sensitized and challenged mice, pretreatment
From the text: FIG. 29: Inhibition of eosinophil infiltration in bronchoalveolar lavage of OVA challenged mice by LFM-A8. The lungs of the mice were lavaged after methacholine challenge and eosinophil numbers were counted. The results of eosinophils are expressed as percent of total cell counts. The data points represent the mean±SEM values obtained from 5-6 mice. *P<0.05 compared to vehicle-treated control, as determined by Student's t test.
Assessment of Eosinophil Infiltration. After airway responsiveness measurements, lungs were lavaged thoroughly with 1 ml saline. The lavage fluid was centrifuged and the supernatant was removed. The cell pellet was resuspended in saline containing 0.1% BSA to give a final cell concentration of 0.1×10^6/ml. Cytospin smears made from the cell suspension were stained with Wright-Giemsa and the number of eosinophils were counted.

[2] = molecular target: T1, Insulin-Receptor Kinase (IRK) (Homo sapiens, UniProt P06213); assay: Cell-free tyrosine kinase inhibition assay IRK from HepG2 cells; type: biochemical
T1 construct: IRK was immunoprecipitated from the lysates with an anti-IRb antibody

[3] = tested on: NALM-6-UM1 cells; assay: Fas-mediated apoptosis, DNA fragmentation; type: cell-based, human
Method: FIGS. 6A-6D: Apoptotic Responses of Human B-lineage Leukemia Cells to Fas Ligation in Relationship to BTK Expression and Function. Anti-BTK and anti-Actin dual-antibody Western blot analysis of whole cell lysates from BTK-positive NALM-6-UM1 (N6-U1) and BTK-deficient RAMOS-1 cells (FIG. 5A). Anti-Fas Western blot analysis of the same cell lysates. [B] Cells were harvested 24 hours after exposure to anti-Fas antibody at 0.1 μg/ml or 1.0 μg/ml concentrations and DNA from Triton-X-100 lysates was analyzed for fragmentation, as described by Uckun, F. M., et al. (1996) Science 273, 1096-1100; and Uckun, F. M., et al. (1995) Science 267, 886-91. […] [C.1] and [C.2] […] N6-U1 cells were harvested 24 hours after exposure to anti-Fas antibody at 0.1 μg/ml or 1.0 μg/ml concentrations and DNA from Triton-X-100 lysates was analyzed for fragmentation, as described by Uckun, F. M., et al. (1996) Science 273, 1096-1100; and Uckun, F. M., et al. (1995) Science 267, 886-91. […]
Apoptosis Assays. […] MC540 binding (as an early marker of apoptosis) and PI permeability (as a marker of advanced stage apoptosis) were simultaneously measured in DT-40 cells 24 hours after exposure to anti-Fas antibody as previously described (Uckun, F. M., et al. (1996) Science 273, 1096-1100). Whole cells were analyzed with a FACStar Plus flow cytometer (Becton Dickinson, San Jose, Calif.). […]

[4] = molecular target: BTK-Fas association in NALM-6-UM1 cells (Homo sapiens, UniProt Q06187); assay: BTK-Fas association, Western blot of BTK immune complexes; type: cell-based; conditions: 10 μM x 4 hours
Method: FIGS. 6A-6D: Apoptotic Responses of Human B-lineage Leukemia Cells to Fas Ligation in Relationship to BTK Expression and Function. Anti-BTK and anti-Actin dual-antibody Western blot analysis of whole cell lysates from BTK-positive NALM-6-UM1 (N6-U1) and BTK-deficient RAMOS-1 cells (FIG. 5A). Anti-Fas Western blot analysis of the same cell lysates. [B] Cells were harvested 24 hours after exposure to anti-Fas antibody at 0.1 μg/ml or 1.0 μg/ml concentrations and DNA from Triton-X-100 lysates was analyzed for fragmentation, as described by Uckun, F. M., et al. (1996) Science 273, 1096-1100; and Uckun, F. M., et al. (1995) Science 267, 886-91. […] [C.1] and [C.2] Anti-BTK and anti-Fas Western blot analysis of whole cell lysates from N6-U1 cells treated with the BTK inhibitor LMA-13 (10 μM×4 hours). [C.3] Anti-Fas and Anti-BTK Western blot analysis of anti-BTK antibody immunoprecipitated BTK immune complexes from untreated (=−Inhibitor) and LMA-13-treated (10 μM×4 hours) (=+Inhibitor) N6-U1 cells. [D]. N6-U1 cells were harvested 24 hours after exposure to anti-Fas antibody at 0.1 μg/ml or 1.0 μg/ml concentrations and DNA from Triton-X-100 lysates was analyzed for fragmentation, as described by Uckun, F. M., et al. (1996) Science 273, 1096-1100; and Uckun, F. M., et al. (1995) Science 267, 886-91. […]

[5] = tested on: B18.2, NALM-6 and ALL-1 cells; assay: Chemosensitization to ceramide and vincristine, DNA fragmentation; type: cell-based; conditions: 100 μM plus VCR 10 ng/ml or C2-CER 10 μM, 24 hours

T1 sequence (P06213 28-1382): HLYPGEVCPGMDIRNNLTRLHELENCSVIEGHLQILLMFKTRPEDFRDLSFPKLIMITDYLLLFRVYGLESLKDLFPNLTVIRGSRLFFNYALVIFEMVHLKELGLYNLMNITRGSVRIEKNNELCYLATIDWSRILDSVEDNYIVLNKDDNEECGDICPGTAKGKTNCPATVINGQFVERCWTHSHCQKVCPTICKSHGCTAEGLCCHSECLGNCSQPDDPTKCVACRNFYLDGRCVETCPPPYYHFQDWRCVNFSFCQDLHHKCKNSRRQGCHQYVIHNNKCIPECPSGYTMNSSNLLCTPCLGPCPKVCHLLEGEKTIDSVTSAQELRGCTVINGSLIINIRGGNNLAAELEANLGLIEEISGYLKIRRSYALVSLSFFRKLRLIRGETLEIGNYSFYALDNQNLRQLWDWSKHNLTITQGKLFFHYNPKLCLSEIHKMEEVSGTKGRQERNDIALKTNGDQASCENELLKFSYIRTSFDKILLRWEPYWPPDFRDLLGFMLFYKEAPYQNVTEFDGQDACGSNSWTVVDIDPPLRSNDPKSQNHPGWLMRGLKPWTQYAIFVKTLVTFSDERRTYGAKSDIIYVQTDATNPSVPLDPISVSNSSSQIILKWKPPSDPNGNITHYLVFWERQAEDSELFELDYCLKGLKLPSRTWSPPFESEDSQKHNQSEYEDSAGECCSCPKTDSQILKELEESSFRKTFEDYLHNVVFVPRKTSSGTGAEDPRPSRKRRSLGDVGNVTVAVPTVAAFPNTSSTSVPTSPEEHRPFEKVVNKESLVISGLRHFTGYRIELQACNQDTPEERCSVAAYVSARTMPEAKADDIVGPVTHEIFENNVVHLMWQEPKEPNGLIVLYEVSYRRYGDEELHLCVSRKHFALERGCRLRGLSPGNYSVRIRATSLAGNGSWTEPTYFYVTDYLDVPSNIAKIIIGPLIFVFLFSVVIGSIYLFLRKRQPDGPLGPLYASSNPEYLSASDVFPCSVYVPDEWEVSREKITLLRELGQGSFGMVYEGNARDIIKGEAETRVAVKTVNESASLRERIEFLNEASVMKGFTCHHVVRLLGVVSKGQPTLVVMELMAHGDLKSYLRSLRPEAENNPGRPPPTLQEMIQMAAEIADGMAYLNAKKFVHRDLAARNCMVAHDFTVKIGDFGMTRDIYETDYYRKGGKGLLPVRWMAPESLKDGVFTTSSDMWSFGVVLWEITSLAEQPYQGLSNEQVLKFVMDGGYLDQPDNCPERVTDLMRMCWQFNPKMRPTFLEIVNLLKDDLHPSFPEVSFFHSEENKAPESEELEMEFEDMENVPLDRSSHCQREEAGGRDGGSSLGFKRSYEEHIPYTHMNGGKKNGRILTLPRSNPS
BTK-Fas association in NALM-6-UM1 cells, sequence (Q06187 2-659): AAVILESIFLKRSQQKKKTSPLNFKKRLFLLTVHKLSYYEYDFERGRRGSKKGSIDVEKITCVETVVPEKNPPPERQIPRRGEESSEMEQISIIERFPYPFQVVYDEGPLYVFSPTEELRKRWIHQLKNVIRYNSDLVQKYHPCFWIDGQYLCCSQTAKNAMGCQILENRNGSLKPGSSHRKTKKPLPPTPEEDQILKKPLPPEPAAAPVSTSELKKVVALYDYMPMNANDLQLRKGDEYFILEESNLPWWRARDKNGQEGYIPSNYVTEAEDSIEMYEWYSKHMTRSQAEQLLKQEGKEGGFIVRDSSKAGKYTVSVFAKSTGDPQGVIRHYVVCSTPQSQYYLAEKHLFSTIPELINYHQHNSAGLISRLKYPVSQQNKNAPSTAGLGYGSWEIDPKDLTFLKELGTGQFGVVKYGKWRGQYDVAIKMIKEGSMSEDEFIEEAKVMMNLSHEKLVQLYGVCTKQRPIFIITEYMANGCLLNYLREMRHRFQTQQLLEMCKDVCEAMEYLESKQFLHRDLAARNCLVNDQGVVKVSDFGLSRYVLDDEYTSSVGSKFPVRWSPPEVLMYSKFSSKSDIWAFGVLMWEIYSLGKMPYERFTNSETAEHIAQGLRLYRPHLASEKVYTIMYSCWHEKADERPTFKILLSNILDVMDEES

With `CC(O)=C(C#N)C(=O)Nc1cccc(C(F)(F)F)c1` [LFM-A8, α-Cyano-β-hydroxy-β-methyl-N-[3-(trifluoromethyl)phenyl]-propenamide] the “reduction of numbers of eosinophils in BAL fluid” value [1] was 80%.

With `C/C(O)=C(\C#N)C(=O)Nc1cc(Br)ccc1Br` [LFM-A13, α-Cyano-β-hydroxy-β-methyl-N-(2,5-dibromophenyl)-propenamide] the IC50 ([2]; IRK) was over 278 µM, the “effect on enzymatic activity of IRK” value ([2]; concentrations as high as 100 μg/ml (~278 μM)) was “did not affect the enzymatic activity” and the “sensitivity to Fas-mediated apoptosis after pretreatment” value ([3]; 10 μM x 4 hours, then anti-Fas 0.1 or 1.0 μg/ml, 24 hours) was “sensitive to Fas-mediated apoptosis”. The “apoptosis by compound alone” value ([3]; 10 μM, 4 hour treatment) was “did not induce apoptosis”, the BTK-Fas association [4] was “abrogates the BTK-Fas association” and the “sensitivity to ceramide-induced and vincristine-induced apoptosis” value [5] was “enhances the sensitivity”.
